According to patent US6080746A, “Methods and compositions for the prophylaxis and treatment of cytomegalovirus infections” (priority 1991, dated 2000):
In brackets after ≈: the same amount, converted by molar mass.

Assays:
CMV [1] = test: ED50 antiviral efficacy against CMV in human foreskin fibroblast cells; type: cell-based; details: Human betaherpesvirus 5, read-out: ED50 (median dose at which 50% antiviral efficacy against CMV is produced)
Procedure: The ED50 value (median dose at which 50% antiviral efficacy against CMV is produced) was 0.06 μg/mL for D-2'-CdG and 0.20 for DHPG in human foreskin fibroblast cells.

cytomegalovirus = details: in vivo; cited from earlier work
[2] = system: human cytomegalovirus (strain AD 169); test: CMV yield in MRC5 cells (Table 1); type: cell-based
Source text: (§1) In each case, drug treatment began 0 hr. postinfection.

[3] = system: human diploid embryonic lung cells (MRC5); test: Drug cytotoxicity (gross morphology) in MRC5 cells (Table 1); details: 320 μg/ml
Source text: Also evaluated under the same conditions were prior art drugs Ara-A and ganciclovir (DHPG). In each case, drug treatment began 0 hr. postinfection.

[4] = system: human cytomegalovirus (strain AD 169); test: Inhibition of human cytomegalovirus in MRC5 cells by plaque reduction assay (reduction of CPE, MIC50; Table 1); type: cell-based; details: Human betaherpesvirus 5, MRC5, treatment 0 hr postinfection, read-out: Reduction (%) of CPE at Time of Harvest
Source text: as §1

HCMV = test: Virus yield-reduction assay, combination with DHPG on HCMV replication in MRC5 cells (Table 2); type: cell-based, human CMV; details: (±)-2'-CDG 0
Source text: Effect of Combination Treatment^a With (±)-2'-CDG and
DHPG on HCMV Replication in MRC5 Cells
(Virus Yield-Reduction Assay)

human CMV [5] = test: Intravitreal human CMV infection in pigmented rabbits, intravitreal treatment; type: in vivo; parameters: key to vitritis, maximum development: 1-2+: mild; details: 80 μl (so in the source) of 2'-CdG
CMV [6] = test: Intravitreal injection for a week, tolerability and antiviral effect; type: in vivo; details: 100 μg/kg every 48 hours intravitreally for a week
Source text: Effective dosages may be administered also in sustained release dosage form.

human CMV [7] = test: Intravitreal human CMV infection in pigmented rabbits, intravitreal treatment; type: in vivo; parameters: key to retinal pathology level: 1-2+: focal hemmorhages and development of localized retinal necrosis; key to Vitritis scores: 1-2+: mild; key to vitritis: 2+: mild vitritis
Procedure: Animal models for human CMV disease were prepared by inoculating human CMV by intravitreal injection into pigmented rabbits. The animals developed in 3-4 days post inoculation a mild to moderate vitritis, focal retinal microhemorrhages, and localized retinal necrosis.
Dosages of 2'-CdG of various amounts in 100 μl of sterile water were injected into rabbit models beginning on day 3 post inoculation and repeated on day 5 and day 7N.
Development and resolution of HCMV intraocular disease in the 80 μg therapy group was similar to disease development in the 100 μg therapy group as described below.
Seven pigmented rabbits were infected with human CMV by intravitreal injection. Beginning on day 3 PI, these animals received 3 successive injections of 100 μg 2'CdG in 50 μl on day 3, 4, and 5 PI. […] Vitritis scores in these animals were 1-2+ (mild) and retinal pathology was reduced to 1-2+ level (focal hemmorhages and development of localized retinal necrosis). […] Initial virus recovery assays indicate that human CMV titers were reduced to 0 or 1 log by day 2 post therapy.

CMV [8] = test: Reduction of CPE in CMV-infected MRC5 cell monolayer cultures (Tables 4 and 5); type: cell-based; details: Human betaherpesvirus 5, MRC5, read-out: Reduction (%) of CPE by D-2'-CDG at Time of Virus Harvest
Procedure: (§2) The effectiveness of racemic 2'-CdG and of D-2'-CdG on CMV yields in MRC5 cell monolayer cultures was determined by a plaque assay with the results set forth in Tables 4 and 5:
(§3) ^a Drug treatment began immediately following the virus adsorption
(§4) ^a Drug treatment began immediately following the 1 1/2 hour

CMV [9] = test: MIC50 against CMV in MRC5 cells; type: cell-based
human CMV [10] = test: Intravitreal human CMV infection in New Zealand white rabbits, intravitreal treatment; type: in vivo; details: 100 μg in 100 μl intravitreal, 48-hour intervals from day 4
Source text: The symptoms included vitritis, iritis, retinal pathology (micro hemorrhages and focal necrosis of the retinal
surface), corneal stromal haze and neovascularization, and corneal endothelial pigmented precipitates. […] The intravitreal route offers some significant advantages for intraocular infections including: 1) delivery of maximal concentrations of drug to the desired site of action; 2) increased potential for sustained release (i.e. longer half-life, T1/2) of the drug; and 3) reduced potential for systemic toxicity.

MRC5 cells = test: Drug cytotoxicity (gross morphology) in MRC5 cell monolayer cultures (Tables 4 and 5); type: cell-based, human
Procedure: as §2, §3, §4

CMV [11] = test: CMV yields in MRC5 cell monolayer cultures by plaque assay (Tables 4 and 5); type: cell-based; details: for CMV Yield: virus control 1.1 × 10^5; for CMV Yield (log10): virus control 5.1
Procedure: as §2, §3, §4

[12] = 40 μg per 100 μl injection, intravitreal
[13] = 100 μg in 50 μl daily, day 3, 4 and 5 PI

Nc1nc(O)c2ncn(COC(CO)CO)c2n1 [DHPG, dihydroxy propoxymethyl guanine, reference compound]
EC50 (CMV [1]): 0.2 µg/mL (≈ 0.784 µM)
toxicity (cytomegalovirus): dose-limiting toxicity
CMV Yield ([2]; 0.1 μg/ml, virus control 5.5 (DHPG 5.3)): 4.7 log10 CCID50 /ml
CMV Yield ([2]; 0.32 μg/ml, virus control 5.5 (DHPG 5.3)): 4.6 log10 CCID50 /ml
CMV Yield ([2]; 1.0 μg/ml, virus control 5.5 (DHPG 5.3)): 3.6 log10 CCID50 /ml
CMV Yield ([2]; 3.2 μg/ml, virus control 5.5 (DHPG 5.3)): 2.3 log10 CCID50 /ml
CMV Yield ([2]; 10 μg/ml, virus control 5.5 (DHPG 5.3)): 1.0 log10 CCID50 /ml
CMV Yield ([2]; 32 μg/ml, virus control 5.5 (DHPG 5.3)): 0 log10 CCID50 /ml
CMV Yield ([2]; 100 μg/ml, virus control 5.5 (DHPG 5.3)): 0 log10 CCID50 /ml
CMV Yield ([2]; 320 μg/ml, virus control 5.3): 0 log10 CCID50 /ml
Drug Cytotoxicity (gross morphology) [3]: sl. toxicity
inhibition at 0.1 µg/mL ([4]; 0.1 μg/ml): 0%
inhibition at 0.32 µg/mL ([4]; 0.32 μg/ml): 5%
inhibition at 1 µg/mL ([4]; 1.0 μg/ml): 30%
inhibition at 3.2 µg/mL ([4]; 3.2 μg/ml): 60%
inhibition at 10 µg/mL ([4]; 10 μg/ml): 95%
inhibition at 32 µg/mL ([4]; 32 μg/ml): 100%
inhibition at 100 µg/mL ([4]; 100 μg/ml): 100%
inhibition at 320 µg/mL ([4]; 320 μg/ml): 100%
Reduction in CMV Yield (HCMV; DHPG 1.0 μM): 0.5 Log10 PFU/ML
Reduction in CMV Yield (HCMV; DHPG 3.2 μM): 1.3 Log10 PFU/ML
Reduction in CMV Yield (HCMV; DHPG 10.0 μM): 1.8 Log10 PFU/ML

Nc1nc2c(ncn2[C@@H]2C[C@H](CO)[C@@H](O)C2)c(=O)[nH]1 [2'-CdG]
development of vitritis and of retinal pathology (human CMV [5]; intravitreal): effective in reducing the development of vitritis (1-2+ maximum development) and in altering the observed development of retinal pathology
vitritis, maximum development (human CMV [5]; intravitreal): 1-2+
Retinal blood vessel engorgement and focal microhemorrhages (human CMV [5]; days 3, 4 and 5 post inoculation): Retinal blood vessel engorgement was evident and focal microhemorrhages were present
antiviral effectiveness (CMV [6]): antivirally effective
tolerability (CMV [6]): well tolerated
Retinal necrosis at sacrifice (human CMV [7]; [12]): evident in all animals at sacrifice
retinal hemorrhages (human CMV [7]; [12]): focal retinal hemorrhages
vitritis (human CMV [7]; [12]): 2+
controlling the development of disease (human CMV [7]; 40 μg per 100 μl injection, intravitreal, from day 3 post inoculation): moderately effective in controlling the development of disease
Vitritis scores (human CMV [7]; [13]): 1-2+
human CMV-induced vitritis and retinal pathology (preliminary) (human CMV [7]; [13]): effective in reducing the development of human CMV-induced vitritis and retinal pathology
progressive disease by day 7 post inoculation (human CMV [7]; [13]): had not developed the progressive disease
retinal pathology level (human CMV [7]; [13]): 1-2+
progressive disease (human CMV [7]; 2'CdG at two day intervals): progressive disease that is observed
moderate to severe retinal necrosis and detachment (human CMV [7]; lower concentration 2'CdG therapies): observed in the lower concentration 2'CdG therapies

Nc1nc2c(ncn2[C@@H]2C[C@H](CO)[C@@H](O)C2)c(=O)[nH]1 [D-2'-CdG]
EC50 (CMV [1]): 0.06 µg/mL (≈ 0.226 µM)
inhibition at 0.1 µM (CMV [8]; Table 5, 0.1 μM): 0%
inhibition at 0.32 µM (CMV [8]; Table 5, 0.32 μM): 0%
inhibition at 1 µM (CMV [8]; Table 5, 1.0 μM): 10%
inhibition at 3.2 µM (CMV [8]; Table 5, 3.2 μM): 10%
inhibition at 10 µM (CMV [8]; Table 5, 10 μM): 25%
inhibition at 32 µM (CMV [8]; Table 5, 32 μM): 50%
inhibition at 100 µM (CMV [8]; Table 5, 100 μM): 50%
IC50 (CMV [9]; Human betaherpesvirus 5): < 0.029 µg/mL
MIC50 relative to the MIC50 of DL-2'-CdG (CMV [9]; same conditions): about half (or less)
clinical outcome compared with ganciclovir (DHPG) (human CMV [10]): clinically better than treatment with ganciclovir (DHPG)
development of retinal pathology, severity of vitritis and iritis vs placebo (human CMV [10]): effective in reducing the development of retinal pathology and in reducing the severity of the vitritis and iritis
Drug Cytotoxicity (gross morphology) (MRC5 cells; Table 5, 0.1 μM): 0
Drug Cytotoxicity (gross morphology) (MRC5 cells; Table 5, 0.32 μM): 0
Drug Cytotoxicity (gross morphology) (MRC5 cells; Table 5, 1.0 μM): 0
Drug Cytotoxicity (gross morphology) (MRC5 cells; Table 5, 3.2 μM): 0
Drug Cytotoxicity (gross morphology) (MRC5 cells; Table 5, 10 μM): 0
Drug Cytotoxicity (gross morphology) (MRC5 cells; Table 5, 32 μM): v. sl. toxicity
Drug Cytotoxicity (gross morphology) (MRC5 cells; Table 5, 100 μM): slight toxicity
Drug Cytotoxicity (gross morphology) (MRC5 cells; Table 5, 320 μM): toxic
CMV Yield (CMV [11]; Table 5, 0.1 μM): 3.8 × 10^4 PFU/mL
CMV Yield (log10) (CMV [11]; Table 5, 0.1 μM): 4.6 log10 PFU/mL
CMV Yield (CMV [11]; Table 5, 0.32 μM): 1.4 × 10^4 PFU/mL
CMV Yield (log10) (CMV [11]; Table 5, 0.32 μM): 4.1 log10 PFU/mL
CMV Yield (CMV [11]; Table 5, 1.0 μM): 5.4 × 10^3 PFU/mL
CMV Yield (log10) (CMV [11]; Table 5, 1.0 μM): 3.7 log10 PFU/mL
CMV Yield (CMV [11]; Table 5, 3.2 μM): 8.4 × 10^2 PFU/mL
CMV Yield (log10) (CMV [11]; Table 5, 3.2 μM): 2.9 log10 PFU/mL
CMV Yield (CMV [11]; Table 5, 10 μM): 2 × 10^1 PFU/mL
CMV Yield (log10) (CMV [11]; Table 5, 10 μM): 1.3 log10 PFU/mL
CMV Yield (CMV [11]; Table 5, 32 μM): 0 PFU/mL
CMV Yield (CMV [11]; Table 5, 100 μM): 0 PFU/mL
